In ChEMBL document CHEMBL3217615, “Novel 3,5-bis(arylidiene)-4-piperidone based monocarbonyl analogs of curcumin: anticancer activity evaluation and mode of action study” (2014):

What was measured:
Format in all cases: functional
CAKI-1 [1] = assay: Growth inhibition of human CAKI-1 cells after 48 hrs by sulforhodamine B assay; conditions: CAKI-1, 48 h; for CC50: read-out: LC50 (the source's name)
HT-29 = assay: Growth inhibition of human HT-29 cells after 48 hrs by sulforhodamine B assay; conditions: HT-29, 48 h; for CC50: read-out: LC50 (the source's name)
[2] = Growth inhibition of human OVCAR8 cells assessed as cell growth at 10^-7 M after 48 hrs by sulforhodamine B assay; conditions: OVCAR-8, 48 h, read-out: Activity
PC-3 = assay: Growth inhibition of human PC3 cells assessed as cell growth at 10^-7 M after 48 hrs by sulforhodamine B assay; conditions: PC-3, 48 h, read-out: Activity
Malme-3M = assay: Growth inhibition of human MALME-3M cells assessed as cell growth at 10^-6 M after 48 hrs by sulforhodamine B assay; conditions: read-out: Activity
NCI-H460 [3] = assay: Growth inhibition of human NCI-H460 cells assessed as cell growth at 10^-4 M after 48 hrs by sulforhodamine B assay; conditions: NCI-H460, 48 h, read-out: Activity
[4] = Growth inhibition of human BT549 cells assessed as cell growth at 10^-7 M after 48 hrs by sulforhodamine B assay; conditions: BT-549, 48 h, read-out: Activity
A498 [5] = assay: Growth inhibition of human A498 cells after 48 hrs by sulforhodamine B assay; conditions: A498, 48 h; for CC50: read-out: LC50 (the source's name)
[6] = Growth inhibition of human OVCAR8 cells assessed as cell growth at 10^-8 M after 48 hrs by sulforhodamine B assay; conditions: OVCAR-8, 48 h; for growth at 0.01 µM: read-out: Activity; for TGI: read-out: pTGI (converted)
COLO 205 = assay: Induction of apoptosis in human COLO205 cells assessed as viable cells level at 10 uM after 24 hrs by Annexin V/propidium iodide staining-based fluorescence microscopy
[7] = Growth inhibition of human LOXIMVI cells assessed as cell growth at 10^-6 M after 48 hrs by sulforhodamine B assay; conditions: LOX IMVI, read-out: Activity
SK-MEL-28 = assay: Growth inhibition of human SK-MEL-28 cells assessed as cell growth at 10^-4 M after 48 hrs by sulforhodamine B assay; conditions: SK-MEL-28, 48 h, read-out: Activity
[8] = Growth inhibition of human OVCAR8 cells assessed as cell growth at 10^-6 M after 48 hrs by sulforhodamine B assay; conditions: OVCAR-8, 48 h, read-out: Activity
[9] = Growth inhibition of human HCT15 cells assessed as cell growth at 10^-7 M after 48 hrs by sulforhodamine B assay; conditions: HCT-15, 48 h, read-out: Activity
NCI-H460 [10] = assay: Growth inhibition of human NCI-H460 cells assessed as cell growth at 10^-6 M after 48 hrs by sulforhodamine B assay; conditions: NCI-H460, 48 h, read-out: Activity
SK-MEL-2 = assay: Growth inhibition of human SK-MEL-2 cells assessed as cell growth at 10^-6 M after 48 hrs by sulforhodamine B assay; conditions: SK-MEL-2, 48 h, read-out: Activity
SR [11] = assay: Growth inhibition of human SR cells after 48 hrs by sulforhodamine B assay; conditions: for CC50: read-out: LC50 (the source's name)
[12] = Growth inhibition of human OVCAR8 cells assessed as cell growth at 10^-4 M after 48 hrs by sulforhodamine B assay; conditions: OVCAR-8, 48 h, read-out: Activity
[13] = Growth inhibition of human HCC2998 cells assessed as cell growth at 10^-7 M after 48 hrs by sulforhodamine B assay; conditions: HCC 2998, 48 h, read-out: Activity
HL-60(TB) [14] = assay: Growth inhibition of human HL-60(TB) cells after 48 hrs by sulforhodamine B assay; conditions: HL-60, 48 h; for CC50: read-out: LC50 (the source's name)
[15] = Growth inhibition of human HOP92 cells assessed as cell growth at 10^-8 M after 48 hrs by sulforhodamine B assay; conditions: HOP-92, 48 h; for growth at 0.01 µM: read-out: Activity; for TGI: read-out: pTGI (converted)
A498 [16] = assay: Growth inhibition of human A498 cells assessed as cell growth at 10^-8 M after 48 hrs by sulforhodamine B assay; conditions: A498, 48 h; for growth at 0.01 µM: read-out: Activity; for TGI: read-out: pTGI (converted)
SK-OV-3 = assay: Growth inhibition of human SKOV3 cells assessed as cell growth at 10^-6 M after 48 hrs by sulforhodamine B assay; conditions: SK-OV-3, 48 h, read-out: Activity
[17] = Growth inhibition of human UACC257 cells assessed as cell growth at 10^-4 M after 48 hrs by sulforhodamine B assay; conditions: UACC-257, 48 h, read-out: Activity
T47D = assay: Growth inhibition of human T47D cells assessed as cell growth at 10^-4 M after 48 hrs by sulforhodamine B assay; conditions: read-out: Activity
HL-60(TB) [18] = assay: Growth inhibition of human HL-60(TB) cells assessed as cell growth at 10^-7 M after 48 hrs by sulforhodamine B assay; conditions: HL-60, 48 h, read-out: Activity
SR [19] = assay: Growth inhibition of human SR cells assessed as cell growth at 10^-4 M after 48 hrs by sulforhodamine B assay; conditions: read-out: Activity
SNB-19 = assay: Growth inhibition of human SNB19 cells after 48 hrs by sulforhodamine B assay; conditions: SNB-19, 48 h; for CC50: read-out: LC50 (the source's name)
MDA-MB-231 = assay: Growth inhibition of human MDA-MB-231 cells assessed as cell growth at 10^-4 M after 48 hrs by sulforhodamine B assay; conditions: MDA-MB-231, 48 h, read-out: Activity
MCF7 = assay: Growth inhibition of human MCF7 cells assessed as cell growth at 10^-4 M after 48 hrs by sulforhodamine B assay; conditions: MCF7, 48 h, read-out: Activity
CAKI-1 [20] = assay: Growth inhibition of human CAKI-1 cells assessed as cell growth at 10^-8 M after 48 hrs by sulforhodamine B assay; conditions: CAKI-1, 48 h; for growth at 0.01 µM: read-out: Activity; for CC50: read-out: pLC50 (the source's name) (converted); for TGI: read-out: pTGI (converted)
HL-60(TB) [21] = assay: Growth inhibition of human HL-60(TB) cells assessed as cell growth at 10^-8 M after 48 hrs by sulforhodamine B assay; conditions: HL-60, 48 h; for growth at 0.01 µM: read-out: Activity; for CC50: read-out: pLC50 (the source's name) (converted); for TGI: read-out: pTGI (converted)
SW-620 = assay: Growth inhibition of human SW620 cells after 48 hrs by sulforhodamine B assay; conditions: SW-620, 48 h; for CC50: read-out: LC50 (the source's name)
MDA-MB-468 = assay: Growth inhibition of human MDA-MB-468 cells assessed as cell growth at 10^-8 M after 48 hrs by sulforhodamine B assay; conditions: MDA-MB-468, 48 h; for growth at 0.01 µM: read-out: Activity; for CC50: read-out: pLC50 (the source's name) (converted); for TGI: read-out: pTGI (converted)

Structure (SMILES): O=C1/C(=C/c2ccc(Cl)cc2Cl)CN(S(=O)(=O)c2ccccc2)C/C1=C\c1ccc(Cl)cc1Cl
- GI50 (CAKI-1 [1]): 1.84 µM
- TGI (CAKI-1 [1]): 5.75 µM
- CC50 (CAKI-1 [1]): > 100 µM
- GI50 (HT-29): 0.293 µM
- TGI (HT-29): 0.843 µM
- CC50 (HT-29): > 100 µM
- growth at 0.1 µM [2]: 94%
- growth at 0.1 µM (PC-3): 93%
- growth at 1 µM (Malme-3M): 123%
- growth at 100 µM (NCI-H460 [3]): -61%
- growth at 0.1 µM [4]: 110%
- GI50 (A498 [5]): 0.727 µM
- TGI (A498 [5]): 4.39 µM
- CC50 (A498 [5]): > 100 µM
- GI50 [6]: 0.229 µM
- LC50 [6]: > 100 µM
- growth at 0.01 µM [6]: 99%
- TGI [6]: 0.955 µM
- Activity (COLO 205): 29%
- growth at 1 µM [7]: -37%
- growth at 100 µM (SK-MEL-28): 42%
- growth at 1 µM [8]: -2%
- growth at 0.1 µM [9]: 90%
- growth at 1 µM (NCI-H460 [10]): -53%
- growth at 1 µM (SK-MEL-2): 98%
- GI50 (SR [11]): 0.185 µM
- TGI (SR [11]): 0.865 µM
- CC50 (SR [11]): > 100 µM
- growth at 100 µM [12]: -14%
- growth at 0.1 µM [13]: 102%
- GI50 (HL-60(TB) [14]): 0.562 µM
- TGI (HL-60(TB) [14]): 3.97 µM
- CC50 (HL-60(TB) [14]): > 100 µM
- GI50 [15]: 1.7 µM
- LC50 [15]: > 100 µM
- growth at 0.01 µM [15]: 81%
- TGI [15]: 5.5 µM
- GI50 (A498 [16]): 0.724 µM
- LC50 (A498 [16]): > 100 µM
- growth at 0.01 µM (A498 [16]): 67%
- TGI (A498 [16]): 4.37 µM
- growth at 1 µM (SK-OV-3): 108%
- growth at 100 µM [17]: 42%
- growth at 100 µM (T47D): 11%
- growth at 0.1 µM (HL-60(TB) [18]): 92%
- growth at 100 µM (SR [19]): -21%
- GI50 (SNB-19): 0.313 µM
- TGI (SNB-19): 2.88 µM
- CC50 (SNB-19): > 100 µM
- growth at 100 µM (MDA-MB-231): -49%
- growth at 100 µM (MCF7): 9%
- GI50 (CAKI-1 [20]): 1.82 µM
- growth at 0.01 µM (CAKI-1 [20]): 89%
- CC50 (CAKI-1 [20]): > 100 µM
- TGI (CAKI-1 [20]): 5.75 µM
- GI50 (HL-60(TB) [21]): 0.562 µM
- growth at 0.01 µM (HL-60(TB) [21]): 97%
- CC50 (HL-60(TB) [21]): > 100 µM
- TGI (HL-60(TB) [21]): 3.98 µM
- GI50 (SW-620): 0.317 µM
- TGI (SW-620): 2.79 µM
- CC50 (SW-620): > 100 µM
- GI50 (MDA-MB-468): 1.12 µM
- growth at 0.01 µM (MDA-MB-468): 90%
- CC50 (MDA-MB-468): > 100 µM
- TGI (MDA-MB-468): 3.89 µM

Structure (SMILES): Cc1ccc(S(=O)(=O)N2C/C(=C\c3cc(F)cc(F)c3)C(=O)/C(=C/c3cc(F)cc(F)c3)C2)cc1
- GI50 (CAKI-1 [1]): 0.365 µM
- TGI (CAKI-1 [1]): 2.43 µM
- CC50 (CAKI-1 [1]): 61.9 µM
- GI50 (HT-29): 0.229 µM
- TGI (HT-29): 0.638 µM
- CC50 (HT-29): 3.19 µM
- growth at 0.1 µM [2]: 82%
- growth at 0.1 µM (PC-3): 89%
- growth at 1 µM (Malme-3M): -15%
- growth at 100 µM (NCI-H460 [3]): -72%
- growth at 0.1 µM [4]: 111%
- GI50 (A498 [5]): 1.88 µM
- TGI (A498 [5]): 4.05 µM
- CC50 (A498 [5]): 8.76 µM
- GI50 [6]: 0.302 µM
- LC50 [6]: 16.2 µM
- growth at 0.01 µM [6]: 95%
- TGI [6]: 1.78 µM
- Activity (COLO 205): 24%
- growth at 1 µM [7]: -82%
- growth at 100 µM (SK-MEL-28): -98%
- growth at 1 µM [8]: 15%
- growth at 0.1 µM [9]: 80%
- growth at 1 µM (NCI-H460 [10]): 45%
- growth at 1 µM (SK-MEL-2): 89%
- GI50 (SR [11]): 0.0348 µM
- TGI (SR [11]): 0.252 µM
- CC50 (SR [11]): > 100 µM
- growth at 100 µM [12]: -71%
- growth at 0.1 µM [13]: 105%
- GI50 (HL-60(TB) [14]): 0.289 µM
- TGI (HL-60(TB) [14]): 1.74 µM
- CC50 (HL-60(TB) [14]): > 100 µM
- GI50 [15]: 1.12 µM
- LC50 [15]: 9.77 µM
- growth at 0.01 µM [15]: 72%
- TGI [15]: 3.31 µM
- GI50 (A498 [16]): 1.86 µM
- LC50 (A498 [16]): 8.71 µM
- growth at 0.01 µM (A498 [16]): 96%
- TGI (A498 [16]): 4.07 µM
- growth at 1 µM (SK-OV-3): 77%
- growth at 100 µM [17]: -84%
- growth at 100 µM (T47D): -61%
- growth at 0.1 µM (HL-60(TB) [18]): 89%
- growth at 100 µM (SR [19]): -30%
- GI50 (SNB-19): 0.22 µM
- TGI (SNB-19): 0.752 µM
- CC50 (SNB-19): 2.82 µM
- growth at 100 µM (MDA-MB-231): -82%
- growth at 100 µM (MCF7): -72%
- GI50 (CAKI-1 [20]): 0.363 µM
- growth at 0.01 µM (CAKI-1 [20]): 94%
- CC50 (CAKI-1 [20]): 61.7 µM
- TGI (CAKI-1 [20]): 2.45 µM
- GI50 (HL-60(TB) [21]): 0.288 µM
- growth at 0.01 µM (HL-60(TB) [21]): 116%
- CC50 (HL-60(TB) [21]): > 100 µM
- TGI (HL-60(TB) [21]): 1.74 µM
- GI50 (SW-620): 0.0721 µM
- TGI (SW-620): 0.305 µM
- CC50 (SW-620): 1.45 µM
- GI50 (MDA-MB-468): 0.347 µM
- growth at 0.01 µM (MDA-MB-468): 90%
- CC50 (MDA-MB-468): 5.75 µM
- TGI (MDA-MB-468): 1.7 µM
